This note sets out measurements from patent US20230331675A1, “AROMATIC ETHYLENE COMPOUND AND PREPARATION METHOD THEREFOR, AND INTERMEDIATE, PHARMACEUTICAL COMPOSITION, AND APPLICATION THEREOF” (GUANGZHOU MAXINOVEL PHARMACEUTICALS CO., LTD., priority 2020, published 2023).

As usually defined, the AUC(0-inf) is the area under the concentration-time curve extrapolated to infinity. One may read the Cmax as the peak of the concentration-time curve.

One data set has as its target PD-1/PD-L1 (Homo sapiens (Human), UniProt Q9NZQ7). Briefly: Homogeneous time-resolved fluorescence (HTRF) binding assay. The following applies: CisBio kit, read-out: IC50 of compounds binding to PD-1/PD-L1. In short, it runs like this:
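Compound at 10 concentrations (3-fold steps) preincubated with PD-L1 and PD-1 at room temperature for 30 minutes. Anti-tag1-Eu and anti-tag2-XL665 then added, with 1 to 24 hours further incubation at room temperature before HTRF readout of binding.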
(In general: In TR-FRET formats the signal depends on donor and acceptor labels being close together.)

A short description of data set [1]: Pharmacokinetic experiment in mice. The following applies: CD1 male mice, intravenous 2 mg/kg; for F: oral 10 mg/kg by gavage; for AUC(0-inf) / Cmax: mouse, plasma, oral 10 mg/kg by gavage (route of value not stated). The data set is classed as in vivo. An excerpt: Effect embodiment 2: Pharmacokinetic experiment in mice
Reagents: Acetonitrile, formic acid, methanol (HPLC grade) were purchased from Sigma-Aldrich (USA.), and pure water was purchased from Hangzhou Wahaha Group Co., Ltd. (Hangzhou, China). Other chemical reagents were all analytically pure reagents.
Experimental instruments: liquid chromatograph mass spectrometer (UPLC-MS/MS, composed of AB SCIEX TRIPLE QUAD 6500 triple quadrupole mass spectrometer, Shimadzu high performance liquid phase system. The Analyst 1.6.2 data acquisition and processing system was adopted).
Experimental animals: 6 CD1 male mice, 29-30 g before administration, were purchased from Shanghai Jihui Experimental Animal Breeding Co., Ltd., and the animal certificate number is SCXK(SH) 2017-0012 20170012001403. Before the experiment, the animals should be kept for at least 3 days to adapt to the environment. Throughout the experiment, the animals had free access to food and water.
1) Preparation of a mother liquor: A certain amount of the test drug was weighed in a clean sample bottle, then dimethyl sulfoxide was added, vortexed thoroughly for 1 min, and sonicated for 5 min to give a 4 mg/mL solution.
Drug preparation for intravenous administration: A certain amount of the above solution was taken and placed in a clean sample bottle, then polyethylene glycol-15 hydroxystearate was added, vortexed thoroughly for 1 min, then normal saline was added, and the mixture was continued vortexing for 1 min to give […] solution A.
Drug preparation for oral administration: A certain amount of the test drug was weighed and placed in a clean sample bottle, then a pre-prepared vehicle “10% (w/v) polyoxyethylene 40 hydrogenated castor+20% (w/v) sulfobutyl ether β-cyclodextrin+70% water” was added, vortexed thoroughly for 1 min, magnetically stirred for 20-25 min, and sonicated for 10 min to give 1 mg/mL solution B.
2) Intravenous administration: 3 mice were injected with 2 mg/kg (5 mL/kg) solution A through the tail vein.
Oral administration: 3 mice were given 10 mg/kg (10 mL/kg) solution B by gavage.
3) Collection and storage of plasma samples: Blood samples were collected from the orbital venous plexus of mice according to predetermined time points (5 minutes, 15 minutes, 30 minutes, 1 hour, 2 hours, 4 hours, 8 hours and 24 hours). 25 μL of blood was placed in EDTA-K2 anticoagulant tubes (placed on wet ice), and 20 μL of blood was immediately diluted with 60 μL of water and vortexed until evenly mixed. Plasma was stored in a −70° C. refrigerator for long-term storage until sample analysis.
4) Analysis of plasma samples: 200 μL of acetonitrile (containing 100 ng/mL internal standard) was added to 25 μL of plasma sample, vortexed for 10 minutes, and centrifuged at 5800 rpm for 10 minutes. 70 μL of supernatant was transferred to a 96-well injection plate. 1 μL of plasma sample was analyzed by LC-MS/MS.
5) The pharmacokinetic parameters were calculated according to the test results.

Chain of PD-1/PD-L1 (Q9NZQ7 19-238): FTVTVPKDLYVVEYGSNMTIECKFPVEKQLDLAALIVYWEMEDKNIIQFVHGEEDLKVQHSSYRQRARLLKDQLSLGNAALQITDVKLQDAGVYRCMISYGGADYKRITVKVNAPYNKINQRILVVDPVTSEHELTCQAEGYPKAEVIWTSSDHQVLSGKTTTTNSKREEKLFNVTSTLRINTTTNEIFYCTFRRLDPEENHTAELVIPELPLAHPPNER

In the case of `COc1cc(/C=C/c2cccc(-c3ccccc3)c2Cl)c(C(F)(F)F)cc1CN1CCCC[C@H]1C(=O)O` [Compound 71, (S,E)-1-(4-(2-(2-Chloro-[1,1′-biphenyl]-3-yl)vinyl)-2-methoxy-5-trifluoromethylbenzyl)piperidine-2-carboxylic acid], the IC50 on PD-1/PD-L1 was 0.68 nM.

Consider `COc1cc(/C=C/c2cccc(-c3ccccc3)c2CF)c(C(F)(F)F)cc1CN1CCCC[C@H]1C(=O)O` [Compound 73, (S,E)-1-(4-(2-(2-Fluoromethyl-[1,1′-biphenyl]-3-yl)vinyl)-2-methoxy-5-trifluoromethylbenzyl)piperidine-2-carboxylic acid], for which the IC50 at PD-1/PD-L1 stood at 3.99 nM.

For `COc1cc(/C=C/c2cccc(-c3ccccc3)c2CF)c(C(F)(F)F)cc1CNCCO` [Compound 74, (E)-2-((4-(2-(2-Fluoromethyl-[1,1′-biphenyl]-3-yl)vinyl)-2-methoxy-5-trifluoromethylbenzyl)amino)-1-ethanol], on PD-1/PD-L1, the IC50 amounted to 7.09 nM.

In the case of `Cc1c(/C=C/c2cc(OCc3cccc(I)c3)c(CN3CCCC[C@H]3C(=O)O)cc2C(F)(F)F)cccc1-c1ccccc1` [Compound 77], the IC50 on PD-1/PD-L1 turned out to be 5.91 nM.

Take `Cc1c(/C=C/c2cc(OCc3ccc(I)cc3)c(CN3CCCC[C@H]3C(=O)O)cc2C(F)(F)F)cccc1-c1ccccc1` [Compound 78]: at PD-1/PD-L1, the IC50 worked out at 65.5 nM.

Regarding `Cc1cc(CN2CCCC[C@H]2C(=O)O)c(OCc2cc(I)ccn2)cc1/C=C/c1cccc(-c2ccccc2)c1C` [Compound 79, (S,E)-1-(2-((4-Iodo-pyridin-2-yl)methoxy)-5-methyl-4-(2-(2-methyl-[1,1′-biphenyl]-3-yl)vinyl)benzyl)piperidine-2-carboxylic acid], on PD-1/PD-L1, the IC50 was 5.31 nM.

In the case of `Cc1c(/C=C/c2cc(OCc3cc(I)ccn3)c(CN3CCCC[C@H]3C(=O)O)cc2C(F)(F)F)cccc1-c1ccccc1` [Compound 80, (S,E)-1-(2-((4-Iodopyridin-2-yl)methoxy)-4-(2-(2-methyl-[1,1′-biphenyl]-3-yl)vinyl)-5-(trifluoromethyl)benzyl)piperidine-2-carboxylic acid], the IC50 at PD-1/PD-L1 worked out at 3.97 nM.

For the molecule `Cc1c(/C=C/c2cc(OCc3ccnc(I)c3)c(CN3CCCC[C@H]3C(=O)O)cc2C(F)(F)F)cccc1-c1ccccc1` [Compound 81, (S,E)-1-(2-((2-Iodopyridin-4-yl)methoxy)-4-(2-(2-methyl-[1,1′-biphenyl]-3-yl)vinyl)-5-(trifluoromethyl)benzyl)piperidine-2-carboxylic acid], at PD-1/PD-L1, the IC50 stood at 2.13 nM.

In the case of `Cc1c(/C=C/c2cc(OCc3cncc(I)c3)c(CN3CCCC[C@H]3C(=O)O)cc2C(F)(F)F)cccc1-c1ccccc1` [Compound 82, (S,E)-1-(2-((5-Iodopyridin-3-yl)methoxy)-4-(2-(2-methyl-[1,1′-biphenyl]-3-yl)vinyl)-5-(trifluoromethyl)benzyl)piperidine-2-carboxylic acid], at PD-1/PD-L1, the IC50 amounted to 1.85 nM.

`Cc1cc(CN2CCCC[C@H]2C(=O)O)c(OCCCCF)cc1/C=C/c1cccc(-c2ccccc2)c1C` [Compound 83, (S,E)-1-(2-(4-Fluorobutoxy)-5-methyl-4-(2-(2-methyl-[1,1′-biphenyl]-3-yl)vinyl)benzyl)piperidine-2-carboxylic acid]: the IC50 at PD-1/PD-L1 was 6.99 nM.

`Cc1cc(CN2CCCC[C@H]2C(=O)O)c(OCCCF)cc1/C=C/c1cccc(-c2ccccc2)c1C` [Compound 84, (S,E)-1-(2-(3-Fluoropropoxy)-5-methyl-4-(2-(2-methyl-[1,1′-biphenyl]-3-yl)vinyl)benzyl)piperidine-2-carboxylic acid]: the IC50 on PD-1/PD-L1 stood at 8.03 nM.

Regarding `Cc1c(/C=C/c2cc(OCCCCF)c(CN3CCCC[C@H]3C(=O)O)cc2C(F)(F)F)cccc1-c1ccccc1` [Compound 85, (S,E)-1-(2-(4-Fluorobutoxy)-4-(2-(2-methyl-[1,1′-biphenyl]-3-yl)vinyl)-5-(trifluoromethyl)benzyl)piperidine-2-carboxylic acid], the IC50 at PD-1/PD-L1 was 4.34 nM.

Turning to `Cc1c(/C=C/c2cc(OCCCF)c(CN3CCCC[C@H]3C(=O)O)cc2C(F)(F)F)cccc1-c1ccccc1` [Compound 86, (S,E)-1-(2-(3-Fluoropropoxy)-4-(2-(2-methyl-[1,1′-biphenyl]-3-yl)vinyl)-5-(trifluoromethyl)benzyl)piperidine-2-carboxylic acid], the IC50 on PD-1/PD-L1 was 3.58 nM.

As to `Cc1c(/C=C/c2cc(OCCF)c(CN3CCCC[C@H]3C(=O)O)cc2C(F)(F)F)cccc1-c1ccccc1` [Compound 87, (S,E)-1-(2-(2-Fluoroethoxy)-4-(2-(2-methyl-[1,1′-biphenyl]-3-yl)vinyl)-5-(trifluoromethyl)benzyl)piperidine-2-carboxylic acid], the IC50 at PD-1/PD-L1 turned out to be 2.8 nM.

Turning to `COc1cc(/C=C/c2cccc(-c3ccccc3)c2C)c(C(F)(F)F)cc1CN1CCCC[C@H]1C(=O)O` [drawing 201], in data set [1], the F was found to be 72.4%, the AUC(0-inf) was found to be 40600 ng·h/mL and the concentration peaked (Cmax) at 1870 ng/mL.

In data set [1], `COc1cc(/C=C/c2cccc(-c3ccccc3)c2C#N)c(C(F)(F)F)cc1CN1CCCC[C@H]1C(=O)O` [drawing 203] came in with an F of 69.7%, an area under the curve AUC(0-inf) of 7620 ng·h/mL and a Cmax of 1400 ng/mL.

For the molecule `Cc1cc(/C=C/c2cccc(-c3ccccc3)c2C#N)c(Cl)cc1CN1CCCC[C@H]1C(=O)O` [drawing 205], in data set [1], the F is 80.6%, the AUC(0-inf) came to 16800 ng·h/mL and the Cmax was determined as 2130 ng/mL.

Take `COc1cc(/C=C/c2nccc(-c3ccccc3)c2C)c(C(F)(F)F)cc1CN1CCCC[C@H]1C(=O)O` [reference compound]: in data set [1], the F stood at 23.6%, the AUC(0-inf) is 2300 ng·h/mL and the Cmax was 673 ng/mL.

In the case of `COc1cc(/C=C/c2nccc(-c3ccccc3)c2C#N)c(C(F)(F)F)cc1CN1CCCC[C@H]1C(=O)O` [reference compound], in data set [1], the F amounted to 16.4%, the AUC(0-inf) stood at 1000 ng·h/mL and the peak level (Cmax) was 254 ng/mL.

In data set [1], `Cc1cc(/C=C/c2nccc(-c3ccccc3)c2C#N)c(Cl)cc1CN1CCCC[C@H]1C(=O)O` [reference compound] registered an F of 74.1%, an AUC(0-inf) of 8580 ng·h/mL and a Cmax of 1260 ng/mL.

Consider “(S,E)-1-(2-((3-Iodobenzyloxy)-5-methyl-4-(2-(2-methyl-[1,1′-biphenyl]-3-yl)vinyl)benzyl)piperidine-2-carboxylic acid [Compound 75]”, for which the IC50 at PD-1/PD-L1 stood at 28.4 nM.

With “(S,E)-1-(2-Methoxy-4-(2-(2-methyl-d3)-[1,1′-biphenyl]-3-yl)vinyl)-5-trifluoromethylbenzyl)piperidine-2-carboxylic acid [Compound 51]”, at PD-1/PD-L1, the IC50 was found to be 2.2 nM.

Consider “(S,E)-2-((5-Chloro-2-(2-(2-cyano-[1,1′-biphenyl]-3-yl)vinyl)-4-(3-methylsulfonyl)propoxy)benzyl)amino)-3-hydroxy-2-methylpropionic acid [Compound 38]”, for which the IC50 on PD-1/PD-L1 was found to be 298 nM.
